Measured values from patent US20260166125A1, “NLRP12 AND NLRC5 MODULATORS AND METHODS FOR USING THE SAME TO MODULATE DISEASES” (St. Jude Children's Research Hospital, Inc., priority 2022, published 2026).
Peptide text beside a SMILES is read from it. * marks the point of attachment. Cbz = O=C(OCc1ccccc1)*; CH2F = FC*

B1: S100A8/A9: recombinant mouse S100A8/S100A9 heterodimer, a DAMP (protein, UniProt P27005 2-89; P31725 2-113, looked up)
Protein S100-A8: PSELEKALSNLIDVYHNYSNIQGNHHALYKNDFKKMVTTECPQFVQNINIENLFRELDINSDNAINFEEFLAMVIKVGVASHKDSHKE
Protein S100-A9: ANKAPSQMERSITTIIDTFHQYSRKEGHPDTLSKKEFRQMVEAQLATFMKKEKRNEALINDIMEDLDTNQDNQLSFEECMMLMAKLIFACHEKLHENNPRGHGHSHGKGCGK
B2: high-mobility group box 1 protein (protein, UniProt P63158 1-215, looked up)
High mobility group protein B1: MGKGDPKKPRGKMSSYAFFVQTCREEHKKKHPDASVNFSEFSKKCSERWKTMSAKEKGKFEDMAKADKARYEREMKTYIPPKGETKKKFKDPNAPKRPPSAFFLFCSEYRPKIKGEHPGLSIGDVAKKLGEMWNNTAADDKQPYEKKAAKLKEKYEKDIAAYRAKGKPDAAKKGVVKAEKSKKKKEEEDDEEDEEDEEEEEEEEDEDEEEDDDDE
notes: recombinant mouse HMGB1, a DAMP

Key:
[1] = system: bone marrow-derived macrophages (BMDMs); test: Real-time imaging for cell death (propidium iodide incorporation, IncuCyte); type: cell-based, mouse; conditions: WT BMDMs; stimuli alone or combined; 48 hours (FIG. 1, FIG. 2)
Description: (§1) Bone Marrow-Derived Macrophages (BMDMs). Primary mouse BMDMs from wild-type and indicated mutant mice were grown for 6 days in Iscove's Modified Dulbecco's Medium (IMDM; Thermo Fisher Scientific) supplemented with 10% Fetal Bovine Serum (Biowest), 30% L929-conditioned media, 1% non-essential amino acids (Thermo Fisher Scientific) and 1% penicillin and streptomycin (Thermo Fisher Scientific). BMDMs at a density of 1×10^6 cells/well in 12-well plates or 5×10^5 cells/well in 24-well plates were seeded into growth media overnight before use.
(§2) Cell Stimulation. BMDMs were stimulated with the following PAMPs, DAMPs and inhibitors alone or in combinations where indicated: 50 μM Hemin (heme; Sigma-Aldrich), 0.75 μg/mL Pam3CSK4 (Pam3; InvivoGen), 15 ng/mL ultrapure lipopolysaccharide (LPS) from E. coli 0111:B4 (InvivoGen), 500 ng/ml R848 (InvivoGen), 100 ng/mL TNF-α (Peprotech), 1 μg/mL poly(I:C) (Invivogen), 200 ng/mL monosodium urate crystals (Invivogen), 200 ng/mL recombinant mouse S100A8/S100A9 heterodimer (bio-techne), 200 ng/mL recombinant mouse HMGB1 (Abcam), 25 μM Z-VAD(OMe)-FMK (zVAD; Cayman Chemical) and 45 μM Necrostatin 2 racemate (Nec-1; Selleckchem).
(§3) Real-Time Imaging for Cell Death. The kinetics of cell death were monitored using the IncuCyte S3 or SX5 (Sartorius) live-cell analysis system. BMDMs (5×10^5 cells/well) were seeded in 24-well tissue culture plates and were treated with the indicated stimuli. Cell death was measured by propidium iodide (PI; Life Technologies) incorporation following the manufacturer's protocol. The plate was scanned for the indicated time durations where fluorescent and phase-contrast images were acquired in real-time every 1 hour. PI-positive dead cells are marked with a red mask and were quantified using the software package supplied with the IncuCyte imager.

[2] = system: heme plus Pam3-treated BMDMs; test: Inhibitor effect on heme plus Pam3-induced cell death in BMDMs; type: cell-based, mouse
Description: as §1, §2, §3

Row | Molecule | cell death [1] | also measured
1 | polyinosinic:polycytidylic acid [poly(I:C)] | Minimal cell death | 
2 | O=c1[nH]c(=O)c2[nH]c([O-])nc2[nH]1.[Na+] [MSU, monosodium urate] | did not induce cell death | 
3 | lipopolysaccharide [LPS] | Minimal cell death | 
4 | COC(=O)C[C@H](NC(=O)[C@H](C)NC(=O)[C@@H](NC(=O)OCc1ccccc1)C(C)C)C(=O)CF [zVAD, Z-VAD(OMe)-FMK] (Cbz-Val-Ala-Asp(OMe)-CH2F) |  | effect on cell death ([2]; WT BMDMs, heme plus Pam3, combination of Nec-1 with zVAD): further reduced the cell death
5 | CC(C)(O)c1coc(S(=O)(=O)NC(=O)Nc2c3c(cc4c2CCC4)CCC3)c1 [MCC950] |  | effect on cell death ([2]; heme plus Pam3-treated BMDMs, MCC950): did not prevent cell death
6 | Pam3CSK4 | Minimal cell death | 
7 | CN1C(=O)NC(Cc2c[nH]c3c(Cl)cccc23)C1=O (racemic) [Nec-1, Necrostatin 2 racemate] |  | effect on cell death ([2]; WT BMDMs, heme plus Pam3, Nec-1 alone, compared to PBS control): partially reduced cell death
8 | C=CC1=C(C)c2cc3[n-]c(cc4[n-]c(cc5nc(cc1n2)C(C)=C5C=C)c(C)c4CCC(=O)O)c(CCC(=O)O)c3C.[Cl-].[Fe+3] [heme, ferriprotoporphyrin IX chloride] | did not induce cell death | 
9 | B1 | did not induce cell death | 
10 | B2 | did not induce cell death | 
